Results on nine compounds are retold here after PubChem BioAssay (NCI).

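Following 48 hours of exposure in 96-well plates, responses at five concentrations were used to interpolate endpoints linearly. TGI is the concentration that stops growth completely.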

Test in all cases: growth of human tumour cells (NCI), 48 h
In assay [1] the test system is 786-0 renal.
Assay [2] concerns A549 NSCLC.
Assay [3] relates to HCT-116 colon.
Assay [4] concerns HOP-62 NSCLC.
Assay [5] has as its system HT29 colon.
The subject of assay [6] is K-562 leukemia.
Assay [7] deals with LOX IMVI melanoma.
The test system of assay [8] is MOLT-4 leukemia.
The test system of assay [9] is NCI-H460 lung.
Assay [10] has as its system RPMI-8226 leukemia.
Assay [11] relates to SK-MEL-28 melanoma.
Assay [12] deals with SN12C renal.
Assay [13] concerns SNB-19 CNS.
Assay [14] has as its system TK-10 renal.
In assay [15] the test system is HCC-2998 colon.
For assay [16], the system named is SR leukemia.
The subject of assay [17] is UACC-257 melanoma.
For assay [18], the system named is MDA-MB-435.

As to `O=C1CC2(CCC3=C(O2)c2ccccc2NC(=O)C3)C(=O)c2ccccc2N1` (stereo not given), the TGI in [1], in assay [2], in [3], in assay [4], in [5] and in assay [6] was more than 100 µM each time. Also, the TGI in assay [7], in assay [8], in assay [9], in assay [10], in assay [11] and in assay [12] was more than 100 µM each time. The TGI in assay [13] and in assay [14] was more than 100 µM in each case.

With `CC(=O)C1Cn2c(=O)c3cc4ccccc4cc3c(=O)n2C=C1C` (stereo not given), the TGI in [1], in assay [2], in assay [15], in assay [3], in [4] and in assay [6] was more than 100 µM each time. Further, the TGI in [7], in assay [8], in assay [9], in assay [10], in [11] and in assay [12] was more than 100 µM in each case. Also, the TGI in assay [13], in assay [16], in assay [14] and in assay [17] was more than 100 µM throughout.

Take `O=C(c1nc2ccccc2[nH]c1=O)C(O)c1ccco1` (stereo not given): the TGI in assay [1], in assay [2], in assay [15], in assay [3], in assay [4] and in assay [5] was more than 100 µM throughout. The TGI in [6], in [7], in assay [8], in assay [9], in [10] and in [11] was more than 100 µM throughout. Also, the TGI in [12], in [13], in [14] and in assay [17] was more than 100 µM throughout.

As to `C/C=C1\CC2C(=O)CCC2C2c3ccccc3OC12` (stereo not given), the TGI in assay [1], in [2], in [3], in assay [4], in assay [5] and in assay [6] was more than 100 µM in each case. In addition, the TGI in assay [7], in assay [18], in assay [8], in assay [9], in assay [10] and in assay [11] was more than 100 µM throughout. For the same compound, the TGI in assay [12] was 0.821 µM; in assay [13], more than 100 µM; in assay [16], more than 100 µM; in [14] it was more than 100 µM; in [17] it was more than 100 µM.

On to `O=C1NC(=O)C(C(=O)C(=O)Nc2ccc(Cl)cc2Cl)C(=O)N1`, for which the TGI in [1], in [2], in assay [15], in assay [3], in [4] and in assay [6] was more than 100 µM throughout. For the same compound, the TGI in assay [8], in assay [9], in assay [10], in [13], in [14] and in assay [17] was more than 100 µM each time.

In the case of `O=c1c2ccccc2nc2n1-c1ccccc1SC2`, the TGI in assay [1], in assay [2], in assay [15], in assay [3], in [4] and in assay [5] was more than 100 µM each time. Also, the TGI in [6] was more than 100 µM; in assay [7] it was more than 100 µM; in assay [8] it was 75.3 µM; in assay [9], more than 100 µM; in assay [10], 71.9 µM; in assay [11], more than 100 µM. In addition, the TGI in assay [12], in assay [13], in [14] and in [17] was more than 100 µM throughout.

For the compound `O=C1C=CC2(C=C1)CCNC1=C2C(=O)c2ccccc2C1=O`, the TGI in assay [1], in [2], in assay [15], in [3], in [4] and in [5] was more than 100 µM in each case. The TGI in assay [6], in assay [7], in [8], in [9], in assay [10] and in assay [11] was more than 100 µM throughout. For the same compound, the TGI in assay [12], in [14] and in assay [17] was more than 100 µM each time.

With `N#CC1=C(c2ccccc2)C(=C2Nc3ccccc3N2)C2S/C(=C\c3ccccc3)C(=O)N2C1=N` (stereo not given), the TGI was determined as 6.09 µM in assay [1]; 12.9 µM in [2]; 13.3 µM in assay [15]; 10.9 µM in assay [3]; 5.1 µM in assay [4]; 14.3 µM in assay [5]. Further, the TGI came to 50.5 µM in assay [6]; 3.43 µM in assay [7]; 7.79 µM in assay [8]; 10.2 µM in assay [9]; 10.5 µM in assay [11]; 11.4 µM in [12]. Also, the TGI in [13] came out at 11.7 µM; in [16], 4.87 µM; in [14] it was 4.78 µM; in assay [17], 15.7 µM.

With `CCOC(=O)C1C(C)C2(C#N)C(=N)OC1(C)C2(C#N)C#N` (stereo not given), the TGI is more than 100 µM in assay [1]; more than 100 µM in assay [2]; more than 100 µM in [3]; more than 100 µM in assay [5]; more than 100 µM in [6]; 67.1 µM in assay [7]. The TGI was more than 100 µM in [18]; 43.8 µM in assay [10]; more than 100 µM in [11]; more than 100 µM in assay [12]; more than 100 µM in assay [13]; more than 100 µM in assay [14]. Moreover, the TGI in assay [17] is more than 100 µM.
